The test system of test [1] is steady-state neuromuscular block induced by pancuronium bromide (Pan). The test is described as follows: Reversal of neuromuscular blockade in vivo, anaesthetized guinea pig, pancuronium. The following applies: Pan infusion, 85–90% block, anaesthetized guinea pigs, i.v. reversal agent; mean. Here is the method:
(§1) Male Dunkin-Hartley guinea pigs (bodyweight: 600–900 g) were anaesthetized by i.p. administration of 10 mg/kg pentobarbitone and 1000 mg/kg urethane. After tracheotomy, the animals were artificially ventilated using a Harvard small animal ventilator. A catheter was placed into the carotid artery for continuous monitoring of arterial blood pressure and the taking of blood samples for blood gas analysis. Heart rate was derived from the blood pressure signal. The sciatic nerve was stimulated (rectangular pulses of 0.5 ms duration at 10 s (0.1 Hz) intervals at a supramaximal voltage, using a Grass S88 Stimulator) and the force of M. gastrocnemius contractions was measured using a Grass FT03 force-displacement transducer. Contractions, blood pressure and heart rate were recorded on a multichannel Grass 7D recorder. Catheters were placed in both jugular veins. One catheter was used for the continuous infusion of a neuromuscular blocking agent. The infusion rate of the neuromuscular blocking agent was increased until a steady-state block of 85–90% was obtained. The other catheter was used for administration of increasing doses of the reversal agent. During continuous infusion of the neuromuscular blocking agent, single doses of increasing concentration of reversal agent were given. At the end of the experiment, the measured force of muscle contractions was plotted against the concentration of reversal agent, and using regression analysis techniques, the 50% reversal concentration was calculated.

The test system of test [2] is steady-state neuromuscular block induced by vecuronium bromide (Vec). Kind of test: Reversal of neuromuscular blockade in vivo, anaesthetized guinea pig, vecuronium. The following applies: Vec infusion, 85–90% block, anaesthetized guinea pigs, i.v. reversal agent; mean. Here is the method:
as §1

Test [3] concerns steady-state neuromuscular block induced by suxamethonium chloride (Sux; succinylcholine). The test is described as follows: Reversal of neuromuscular blockade in vivo, anaesthetized guinea pig, suxamethonium. The following applies: Sux infusion, 85–90% block, anaesthetized guinea pigs, i.v. reversal agent; mean. The procedure: as §1
For test [4], the system named is steady-state neuromuscular block induced by atracurium besilate (Atr). Kind of test: Reversal of neuromuscular blockade in vivo, anaesthetized guinea pig, atracurium. The settings on record: Atr infusion, 85–90% block, anaesthetized guinea pigs, i.v. reversal agent; mean. The procedure: as §1
For test [5], the system named is steady-state neuromuscular block induced by cis-atracurium (Cis-Atr). The test is described as follows: Reversal of neuromuscular blockade in vivo, anaesthetized guinea pig, cis-atracurium. The settings on record: Cis-Atr infusion, 85–90% block, anaesthetized guinea pigs, i.v. reversal agent; mean. The procedure:
as §1

In test [6] the test system is steady-state neuromuscular block induced by rocuronium bromide (Roc). The test is described as follows: Reversal of neuromuscular blockade in vivo, anaesthetized guinea pig, rocuronium. The following applies: Roc infusion, 85–90% block, anaesthetized guinea pigs, i.v. reversal agent; mean. The procedure:
as §1
Reversal of neuromuscular block in vivo, induced by rocuronium bromide, was carried out as described in Example 5.

The test system of test [7] is steady-state neuromuscular block induced by tubocurarine chloride (T-C). The test is described as follows: Reversal of neuromuscular blockade in vivo, anaesthetized guinea pig, tubocurarine. The settings on record: T-C infusion, 85–90% block, anaesthetized guinea pigs, i.v. reversal agent; mean. The procedure: as §1
The subject of test [8] is steady-state neuromuscular block induced by rapacuronium bromide (Rap; Org 9487). The test is described as follows: Reversal of neuromuscular blockade in vivo, anaesthetized guinea pig, rapacuronium. The following applies: Rap infusion, 85–90% block, anaesthetized guinea pigs, i.v. reversal agent; mean. Here is the method: as §1
Test [9] concerns steady-state neuromuscular block induced by mivacurium chloride (Miv). Kind of test: Reversal of neuromuscular blockade in vivo, anaesthetized guinea pig, mivacurium. The settings on record: Miv infusion, 85–90% block, anaesthetized guinea pigs, i.v. reversal agent; mean. Here is the method: as §1
Test [10] relates to neuromuscular block induced by rocuronium in isolated mouse hemidiaphragm. The test is described as follows: Reversal of neuromuscular block in vitro: isolated mouse hemidiaphragm preparation. The following applies: for Mouse hemidiaphragm: maximum reversal (%) / concentration of chemical chelator at maximum reversal: 3.1 μM rocuronium; for concentration of chemical chelator at maximum reversal: mouse hemidiaphragm; for Reversal of the neuromuscular blocking action of rocuronium (in words): rocuronium-induced block. Here is the method: Hemidiaphragms, with phrenic nerves attached, were removed from euthanized male mice (Institute of Cancer Research; bodyweight: 20–60 g). The preparations were mounted on a tissue holder and placed in a tissue bath filled with a modified Krebs-Henseleit solution (composition: 118 mM NaCl, 30 mM NaHCO3, 5 mM KCl, 1 mM KH2PO4, 1 mM MgSO4, 30 mM glucose and 2.5 mM CaCl2) at 37° C. and bubbled with 95% oxygen and 5% carbondioxide. One end of the preparation was connected with a siliconized silk suture to a Grass FT03 force-displacement transducer. An initial force of 10 mN was applied. The phrenic nerve was placed on a bipolar platinum electrode and was stimulated with rectangular pulses of 0.2 ms duration at 20 s (0.05 Hz) intervals at a supramaximal voltage, using a Grass S88 Stimulator. Contractions were recorded on a four channel Grass 79D recorder.
Increasing amounts of reversal agent were then administered into the bath at intervals of 10 min. The % maximum reversal was established. At the end of the experiment, the measured muscle contractions force was plotted against the concentration of reversal agent, and using regression analysis techniques, the 50% reversal concentration was calculated.
After induction of neuromuscular block by rocuronium, the % maximum reversal produced by the addition of a number of γ-cyclodextrin derivatives (compounds 11–16), a cyclic octasaccharide comprising 4 rhamnosyl-mannopyranosyl units (compound 24), or a number of paracyclophane derivatives (compounds 17–21 and 23) are presented in Table II.
Reversal of neuromuscular block in vitro was carried out using the mouse hemidiaphragm preparation as described in Example 6.

A short description of test [11]: Complexation of rocuronium bromide by chemical chelators (1H NMR, 303 K). The format is binding. The following applies: NMR spectroscopy at 303 K, D2O, curve fitting of proton chemical shift changes. The procedure: All the ^1H spectra (303 K) were recorded at 400.13 MHz with 128 scans, sw=12 ppm, TD=32 k and zero filled to 64 k real points in processing. All experiments were measured at 303K.
Determination of Stoichiometry
Stock solutions of rocuronium bromide and γ-cyclodextrin (15) were prepared, both with a concentration of 6.02 mM. From these, sixteen solutions were prepared (with the mole % of rocuronium ranging from 0-100) by taking aliquots of 0–800 μl of the rocuronium bromide solution. Aliquots of the γ-cyclodextrin solution, 800–0 μl were added to make the solution a total volume of 800 μl and 100 mole % (i.e. 6.02 mM of [rocuronium bromide+γ-cyclodextrin]). ^1H-NMR spectra were recorded as described above.
If the chemical shift change of H9α in rocuronium bromide is defined as Δδ then a plot of [Δδ*(mole % rocuronium bromide)] vs. [mole % rocuronium bromide] gives a so called Job Plot by the method of continuous variation (Connors K. A.: Binding constants, The measurement of Molecular Complex Stability; Wiley-Interscience; New York, 1987, pp 24–28). The maximum in this plot is indicative for the stoichiometry of the complex.
Determination of the Association Constants
A stock solution of rocuronium bromide: 0.821 mM in D2O was prepared. […]
^1H NMR spectra were recorded as descibed above. […]

Marks after values point to notes of the source that are not given here.

Turning to “2-hydroxypropyl-γ-CD (DS = 4) [Compound 16]”, the “Dose (ED50) producing 50% reversal of steady-state neuromuscular block” value (“Dose (ED50) producing 50% reversal” for short) in [1] was 440 (3) μmol.kg^−1; in [2], 123 (3) μmol.kg^−1; in [3], 1340 (2) μmol.kg^−1; in test [4], 828 (2) μmol.kg^−1; in [5], 878 (2) μmol.kg^−1; in test [6], 12 (3) μmol.kg^−1. The figures for the “Dose (ED50) producing 50% reversal” value in [7], in test [8] and in test [9] were 909 (2) μmol.kg^−1, 134 (3) μmol.kg^−1 and 1674 (2) μmol.kg^−1, respectively. Further, in test [10], the “Mouse hemidiaphragm: maximum reversal (%)” value (“Mouse hemidiaphragm … (%)” for short) is recorded as 71%. In test [10], the “concentration of chemical chelator at maximum reversal” value (“concentration of chemical chelator” for short) stood at 360 µM.
As for `OC[C@H]1O[C@@H]2O[C@H]3[C@H](O)[C@@H](O)[C@@H](O[C@H]4[C@H](O)[C@@H](O)[C@@H](O[C@H]5[C@H](O)[C@@H](O)[C@@H](O[C@H]6[C@H](O)[C@@H](O)[C@@H](O[C@H]7[C@H](O)[C@@H](O)[C@@H](O[C@H]8[C@H](O)[C@@H](O)[C@@H](O[C@H]1[C@H](O)[C@H]2O)O[C@@H]8CO)O[C@@H]7CO)O[C@@H]6CO)O[C@@H]5CO)O[C@@H]4CO)O[C@@H]3CO` [Compound 9, β-cyclodextrin], the “Dose (ED50) producing 50% reversal” value is recorded as 1050 (2) μmol.kg^−1 in [1], 636 (1) μmol.kg^−1 in test [2], 20 (3) μmol.kg^−1 in test [6] and 358 (3) μmol.kg^−1 in test [8]. Moreover, the “Association constant (Ka, M^−1) of 1:1 complex of rocuronium bromide and cyclic host compound” value in [11] is given as 3,100–3,900* M^−1.
Consider “carboxyethyl-γ-CD (DS = 3.8) [Compound 14]”, for which the “Dose (ED50) producing 50% reversal” value in test [1] is 141 (3) μmol.kg^−1; in test [2], 25 (3) μmol.kg^−1; in [3], 1294 (2) μmol.kg^−1; in [4] it was 421 (2) μmol.kg^−1; in [5] it was 1558 (3) μmol.kg^−1; in test [6] it was 7 (3) μmol.kg^−1. In addition, the “Dose (ED50) producing 50% reversal” value is 294 (2) μmol.kg^−1 in test [7], 43 (3) μmol.kg^−1 in [8] and 399 (2) μmol.kg^−1 in [9]. In test [10], the “Mouse hemidiaphragm … (%)” value was 87%. Also, in test [10], the “concentration of chemical chelator” value amounted to 144 µM. Besides, the “Reversal of the neuromuscular blocking action of rocuronium (in words)” value in test [10] is “efficiently blocked”.
For “carboxymethyl-γ-CD (DS = 3.2) [Compound 13]”, the “Dose (ED50) producing 50% reversal” value is recorded as 641 (4) μmol.kg^−1 in test [1]; 30 (3) μmol.kg^−1 in test [2]; 999 (2) μmol.kg^−1 in test [3]; 990 (2) μmol.kg^−1 in [4]; 893 (2) μmol.kg^−1 in test [5]; 25 (4) μmol.kg^−1 in test [6]. The “Dose (ED50) producing 50% reversal” value is listed as 431 (2) μmol.kg^−1 in [7], 227 (2) μmol.kg^−1 in [8] and 964 (3) μmol.kg^−1 in test [9]. For the same molecule, the “Mouse hemidiaphragm … (%)” value in test [10] amounted to 88%. For the same molecule, the “concentration of chemical chelator” value in [10] is 180 µM. Further, the “Reversal of the neuromuscular blocking action of rocuronium (in words)” value in test [10] is “efficiently blocked”.
On to “γ-cyclodextrin-phospate sodium salt (DS = 3) [Compound 11]”, for which the “Dose (ED50) producing 50% reversal” value in [1] is 197 (2) μmol.kg^−1; in [2], 67 (3) μmol.kg^−1; in test [3], 160 (2) μmol.kg^−1; in test [4] it was 113 (2) μmol.kg^−1; in test [5], 204 (2) μmol.kg^−1; in [6], 64 (3) μmol.kg^−1. The “Dose (ED50) producing 50% reversal” value is given as 160 (2) μmol.kg^−1 in [7], 80 (3) μmol.kg^−1 in [8] and 292 (2) μmol.kg^−1 in test [9]. In [10], the “Mouse hemidiaphragm … (%)” value is given as 34%. Besides, the “concentration of chemical chelator” value in [10] was 360 µM.

These data come from patent publication US7265099B1, “Use of chemical chelators as reversal agents for drug-induced neuromuscular block” (Organon N.V., priority 1999, dated 2007).
